Data set [1] in a line: Study 3: Lyrica combination product in generalized anxiety disorder (GAD), perceived symptoms, side effects, quality of life, adherence. The following applies: Patient 3 (only PP); for Anxiety Daytime / Anxiety Evening/Night / Fatigue / Muscle tension Daytime / Muscle tension Evening/Night: average VAS 0-10; for Dizziness / Dry month / Nausea: frequency of Yes answers; for Quality of Life: average VAS 0-10, 10 = Extremely good. The protocol:
Three patients participated in the study, where two of them were given the combination product, A+B, and the third was given the PP, A. All three patients were using an evaluation tool in order to capture the continuous data concerning their current health situation. Prior to entering the study none of the patients had used either the PP or the CPP.
Length of study: 2 months.
The two patients using the combination product were evaluated against the one patient using only the PP and being treated according to ordinary health care in Sweden.
Due to the specific and profound study objectives, detailed outcome and behavior during the study period from the patients were evaluated against each other. The measurements of the patient outcomes were evaluated for each patient in different time phases during the treatment period.
In order to measure the appropriate patient outcome, the patients were continuously followed-up. […] The used QFM for the patients in the intervention group, patient 1 and 2: • 1. Set of questions. • 2. Set of functions generating individual and patient specific feedback information. • 3. Feedback based upon the individual patient specific feedback information.
The used set of questions for the patient in the control group, patient 3: • 1. Set of questions similar to the intervention group in order to capture patient reported outcome data • 2. No set of functions. • 3. No feedback information or feedback.
The measured variables (see table 19) were symptom and side effect levels which were perceived estimates by each patient at every measure point. The change in levels of symptoms and side effects between different measured times were used for comparisons. Symptoms and side effects are many times closely related in GAD. In this study anxiety, fatigue, and muscle tension were defined as symptoms while dizziness, nausea, and dry mouth were considered as side effects. This study focused on the overall clinical effect and patient safety aspects therefore it was not crucial to the results if a measured variable could have been defined differently.

For data set [2] the following is noted: test period when patient was only taking Metformin (two months).
Experimental: Follow-up variables: HbA1c • c. Period of time using the combination product: Three months. • d. Period of time using only the pharmaceutical, i.e. no combination product, prior to the period of using the combination product: Two months
Metformin was the following: • Adherence to Metformin: • The patient was asked to answer a question whether or not he/she had been adherent to Metformin, and which dose the patient took; “I have taken my Metformin today with the daily dose of 500 mg/1000 mg/1500 mg/2000 mg/2500 mg or 3000 mg”. • Physical activity: • The patient was asked to continuously answer a question like the following: “I have been exercising the following number of minutes today: [number]”. • Weight/BMI: • The patient was asked to answer a question regarding his/her actual weight. • Blood glucose: • The patient was asked to register his/her measured blood glucose, when he/she had measured it. It was possible for the patient to change or update already registered answers. • HbA1c: • The patient was asked to register his/her HbA1c after it had been measured at a clinic. • A possible adverse event for Metformin: • “Have you experienced unexpected loss of weight, severe nausea or vomiting (malaise), uncontrolled sudden pain when breathing or abdominal? […] Extremely much versus Nothing at all” according to a VAS structure
The conditions of data set [3]: test period when patient only was taking Zoloft (two months).
Text: Test objectives; improve cardiovascular and diabetes symptoms through an increased well-being from improved adherence to Zoloft, initiating primarily an improved level of physical activity • b. Follow-up variables: Weight and HbA1c • c. Period of time using the combination product: Five months. • d. Period of time using only the pharmaceutical, i.e. no combination product, prior to the period of using the combination product: Two months • e. Period of time using only the software application, after the period of using the combination product: Two weeks
The individual goal was set-up by the patient by answering the following question: “Give your own personal goal for the physical activity in number of minutes for one week”. • The patient was then asked to continuously answer a question like the following: “I have been exercising the following number of minutes today: [number]”. • Weight/BMI: • The patient was asked to answer a question regarding his/her actual weight. • Depression and Anxiety, respectively: • The patient was asked to register the actual level of perceived depression respectively actual level of perceived anxiety at predefined occasions every second day. It was also possible for the patient to answer the question when he/she wanted. […]

The structures appear in SMILES notation.

Consider `CC(C)C[C@H](CN)CC(=O)O` [A, pregabalin], for which, in data set [1] (1st phase), the “Anxiety Daytime” value amounted to 3.5, the “Anxiety Evening/Night” value is given as 2.8, the Fatigue turned out to be 5.4 and the “Muscle tension Daytime” value came out at 6.3. Also, in data set [1] (1st phase), the “Muscle tension Evening/Night” value came to 3.9, the Dizziness was determined as 13%, the Dry month is 0% and the Nausea was 38%. Moreover, in data set [1] (2nd phase), the “Anxiety Daytime” value came to 3.0, the “Anxiety Evening/Night” value is reported as 2.9, the Fatigue came out at 5.0 and the “Muscle tension Daytime” value is 7.8. In addition, in data set [1] (2nd phase), the “Muscle tension Evening/Night” value is 7.4, the Dizziness is reported as 0%, the Dry month came out at 0% and the Nausea is listed as 11%. Besides, in data set [1] (2nd vs 1st phase), the “Anxiety Daytime, Change” value is reported as −0.5; the “Anxiety Evening/Night, Change” value came to 0.1; the “Dizziness, Change” value is listed as −13 p.p; the “Dry month, Change” value amounted to 0 p.p. Besides, in data set [1] (2nd vs 1st phase), the “Fatigue, Change” value is given as −0.4; the “Muscle tension Daytime, Change” value was 1.5; the “Muscle tension Evening/Night, Change” value is on record as 5.5; the “Nausea, Change” value is given as −27 p.p. In addition, in data set [1] (3rd phase), the “Anxiety Daytime” value was determined as 1.9, the “Anxiety Evening/Night” value amounted to 1.8, the Fatigue came out at 5.1 and the “Muscle tension Daytime” value was 7.1. In data set [1] (3rd phase), the “Muscle tension Evening/Night” value worked out at 7.2, the Dizziness stood at 0%, the Dry month is recorded as 0% and the Nausea was found to be 0%. In data set [1] (3rd vs 2nd phase), the “Anxiety Daytime, Change” value is given as −1.1; the “Anxiety Evening/Night, Change” value was −1.1; the “Dizziness, Change” value stood at 0 p.p; the “Dry month, Change” value worked out at 0 p.p. In addition, in data set [1] (3rd vs 2nd phase), the “Fatigue, Change” value was 0.1; the “Muscle tension Daytime, Change” value is −0.7; the “Muscle tension Evening/Night, Change” value is recorded as −0.3; the “Nausea, Change” value is −11 p.p. In addition, in data set [1] (End period), the “Anxiety Daytime” value was found to be 2.0, the “Anxiety Evening/Night” value is 2.5, the Fatigue is on record as 4.8 and the “Muscle tension Daytime” value is given as 7.3. Moreover, in data set [1] (End period), the “Muscle tension Evening/Night” value was found to be 7.4, the “Quality of Life” value is 2.5, the Dizziness was 0% and the Dry month was 0%. In data set [1] (End period), the Nausea is on record as 0%. In addition, in data set [1] (End vs Start period), the “Anxiety Daytime, Change” value is on record as −1.8; the “Anxiety Evening/Night, Change” value came out at 0.1; the “Dizziness, Change” value is reported as −13 p.p; the “Dry month, Change” value is given as 0 p.p. In addition, in data set [1] (End vs Start period), the “Fatigue, Change” value is on record as −0.8; the “Muscle tension Daytime, Change” value stood at 1.4; the “Muscle tension Evening/Night, Change” value is recorded as 4.0; the “Nausea, Change” value is −38 p.p. In addition, the “Quality of Life, Change” value in data set [1] (End vs Start period) is 0.5. Further, in data set [1] (Start period), the “Anxiety Daytime” value is listed as 3.8, the “Anxiety Evening/Night” value is 2.4, the Fatigue is given as 5.6 and the “Muscle tension Daytime” value was 5.9. Further, in data set [1] (Start period), the “Muscle tension Evening/Night” value worked out at 3.4, the “Quality of Life” value is reported as 2.0, the Dizziness was 13% and the Dry month was determined as 0%. In data set [1] (Start period), the Nausea is recorded as 38%.

Regarding `CN(C)C(=N)N=C(N)N` [Metformin], the “increase of HbA1c” value in data set [2] was 7%.

Consider `CN[C@H]1CC[C@@H](c2ccc(Cl)c(Cl)c2)c2ccccc21` [Zoloft, Sertralin], for which, in data set [3], the HbA1c course result was “remained stable or slightly increased” and the weight gain was 1-2%.
